In patent EP2687509A2, “Dicarboxyimides derivatives for use in the treatment of cancer” (Warszawski Uniwersytet Medyczny, priority 2012, dated 2014):
Read-outs that look alike come from different tables or passages of the source.

Columns and labels:
[1] = test system: peripheral blood lymphocytes; settings: normal cells (peripheral blood lymphocytes); cited from earlier work
[2] = test system: tumor cell lines (leukemia, breast cancer, neuroblastoma, colorectal cancer, liver, prostate, lung); settings: 13 tested tumor cell lines; cited from earlier work
caspase-3 = settings: MOLT-4 cells; 5µM; after 12 hours of incubation; cited from earlier work
caspase-6 = settings: MOLT-4 cells; 5µM; after 24 hours of incubation; cited from earlier work
HeLa cells = assay: MTT cytotoxicity assay, HeLa cells; type: cell-based; settings: Homo sapiens, 48 h incubation, * = compound precipitated at 1 mM from cell cultures
Protocol: (§1) A series of dicarboximides derivatives (table 1) was tested for cytotoxic properties against four cell lines. The tests were conducted by means of MTT assay where yellow tetrazole salt was processed by the dehydrogenases in mitochondria of live cells into violet formazan. The following cell lines were used:
- HeLa cells (uterine cervix cancer)
(§2) 1. HeLa, K562, HL60, HUVEC cells in an amount of 7 thousand cells / well (in 200 µL medium) were seeded in 96-well plates. Cells were incubated overnight in an incubator (37°C, 5% CO2)
(§3) 2. Test compounds were dissolved in DMSO and added in an amount of 2µL to the surface of the cells to give the following final concentrations in the cell culture (1 mM, 10 µm, 100 nM, 1 nM). As a control, cells exposed to 1% DMSO were used.
(§4) 3. Cytotoxicity of the test compounds was evaluated by MTT test. After 48-hour incubation of HeLa, K562, HL60 or HUVEC cells with the test compounds, MTT (5mg/mL) was added in an amount of 25µL/well. MTT, a yellow tetrazolium salt was reduced to purple formazan by mitochondrial dehydrogenases of living cells. The amount of formazan could be determined spectrophotometrically and was proportional to the number of live cells. Cells were incubated with MTT for 2 hours in an incubator (37°C, 5% CO2). Next, lysis buffer containing SDS and DMF was added (95µL/well) to each well and incubated overnight at 37°C, 5% CO2.
(§5) 4. The plates were analyzed by reading the absorbance at a wavelength of 570 nm and 650 nm using the plate-reader Fluostar Omega. The measured absorbance at 570 nm is proportional to the number of living cells. IC50 values (concentration of compound causing 50% cell mortality) were read from the charts by interpolation to 50% cell survival.

K562 cells [3] = assay: MTT cytotoxicity assay, K562 cells; type: cell-based, human; settings: 48 h incubation, * = compound precipitated at 1 mM from cell cultures
Protocol: as §1
- K562 cells (human chronic myelogenous leukaemia) and
as §2, §3, §4, §5

HUVEC cells = assay: MTT cytotoxicity assay, HUVEC cells; type: cell-based; settings: Homo sapiens, 48 h incubation, * = compound precipitated at 1 mM from cell cultures
Protocol: as §1
- HUVEC cells (normal human endothelial cells).
as §2, §3, §4, §5

HL60 cells = assay: MTT cytotoxicity assay, HL60 cells; type: cell-based; settings: Homo sapiens, HL-60, 48 h, 48 h incubation
Protocol: as §1
- HL60 cells (human acute myelogenous leukaemia)
as §2, §3, §4, §5

caspase 3 and 7 = assay: Apo-ONE Homogeneous Caspase-3/7 Assay in K562 cells; type: cell-based, human; settings: for activity of caspase 3 and 7: 5 x IC50 (a5: 10 µM), 18 hours, compared with K562 and K562+DMSO, Fig. 1
Protocol: The observed cytotoxicity of compounds a3-7 was tested for its origin, i.e. induction of necrosis or apoptosis in the K562 cells of chronic myelogenous leukaemia.
K562 cells in RPMI 1640 medium containing 10% fetal calf serum and antibiotics were seeded on 96-well plate in an amount of 20x10^3 cells / well. Cells were cultured for 24 hours in an incubator (5% CO2, 37°C).
Compounds a3-a7 were dissolved in DMSO and added to the cell medium; final concentration in the cell culture was 5 x IC50. Cells cultured in the presence of 1% DMSO served as a negative control. Cells grown in the presence of 1 µM staurosporin (a strong inducer of apoptosis) served as a positive control. […]
The activity of caspase 3 and 7 was determined by means of Apo-ONE® Homogeneous Caspase-3/7 Assay (Promega, Madison, WI, USA), in compliance with manufacturer's guidelines. Cells were lysed and incubated with a profluorescent substrate for caspases for 1.5 hours at room temperature. Due to proteolytic activity of caspases, the profluorescent substrate was converted into a fluorescent product the amount of which could be determined by measurement of fluorescence intensity.
The fluorescence intensity in each well was measured using a plate reader Fluostar Omega (BMG-Labtech, Germany) at an excitation wavelength of 485 nm and emission 520 nm. The intensity of fluorescence is proportional to the activity of caspase 3 and 7 in the sample.

K562 cells [4] = settings: against K562 cells; for comparison; cited from earlier work
[5] = * = compound precipitated at 1 mM from cell cultures

SMILES | IC50 (HeLa cells) [µM] | IC50 (K562 cells [3]; Homo sapiens, K562, 48 h) [µM] | IC50 (HUVEC cells) [µM] | further results
O=C1c2cccc3c([N+](=O)[O-])ccc(c23)C(=O)N1CCCO [6-nitro-2-(3-hydroxypropyl)-1H-benz[de]izoquinolino-1,3-dione] | – | – | – | IC50 [1]: 273 µM; tested tumor cell lines to which the compound was toxic [2]: 8 of 13; caspase-3 activity (caspase-3): significant increase; caspase-6 activity (caspase-6): significant increase
CN(C)CCN1C(=O)C2C(C1=O)C1(c3ccccc3)CC2(c2ccccc2)C(c2ccccc2)=C1c1ccccc1 (stereo not drawn) [a1] | 1 | 1 | > 1000 | –
CN(C)CCCN1C(=O)C2C(C1=O)C1(c3ccccc3)CC2(c2ccccc2)C(c2ccccc2)=C1c1ccccc1 (stereo not drawn) [a2] | 1 | 1 | 4 | –
CCC12C(=O)C(CC)(C(c3ccccc3)=C1c1ccccc1)C1C(=O)N(CCN(C)C)C(=O)C12 (stereo not drawn) [a3] | > 1000 | – | > 1000 | IC50 (K562 cells [3]): 10 µM; IC50 (HL60 cells): 1 to 10 µM; IC50 (HL60 cells; [5]): > 1000 µM; activity of caspase 3 and 7 (caspase 3 and 7): do not increase
CCN(CC)CCN1C(=O)C2C(C1=O)C1(CC)C(=O)C2(CC)C(c2ccccc2)=C1c1ccccc1 (stereo not drawn) [a4] | > 1000 | – | > 1000 | IC50 (K562 cells [3]): 4.5 µM; IC50 (HL60 cells): 1 to 10 µM; IC50 (HL60 cells; [5]): > 1000 µM; activity of caspase 3 and 7 (caspase 3 and 7): do not increase
CCC12C(=O)C(CC)(C(c3ccccc3)=C1c1ccccc1)C1C(=O)N(CCN3CCCCC3)C(=O)C12 (stereo not drawn) [a5] | > 1000 | 1 to 10 | > 1000 | IC50 (K562 cells [3]): 2 µM; IC50 (HL60 cells): 1 to 10 µM; IC50 (HL60 cells; [5]): > 1000 µM; activity of caspase 3 and 7 (caspase 3 and 7): increased; activity of caspases 3 and 7 (caspase 3 and 7; a5 concentration = 10 µM, incubation time = 24h): increased
CCC12C(=O)C(CC)(C(c3ccccc3)=C1c1ccccc1)C1C(=O)N(CCCN(C)C)C(=O)C12 (stereo not drawn) [a6] | > 1000 | – | > 1000 | IC50 (K562 cells [3]): 8 µM; IC50 (HL60 cells): 1 to 10 µM; IC50 (HL60 cells; [5]): > 1000 µM; activity of caspase 3 and 7 (caspase 3 and 7): do not increase
CCC12C(=O)C(CC)(C(c3ccccc3)=C1c1ccccc1)C1C(=O)N(CC(O)CN(C)C)C(=O)C12 (stereo not drawn) [a8] | > 1000 | > 1000 | – | –
CC(C)NCC(O)CN1C(=O)C2C(C1=O)C1(c3ccccc3)CC2(c2ccccc2)C(c2ccccc2)=C1c1ccccc1 (stereo not drawn) [a9] | 1 | 1 | 1 | –
CN(C)CC(O)CN1C(=O)C2C(C1=O)C1(c3ccccc3)CC2(c2ccccc2)C(c2ccccc2)=C1c1ccccc1 (stereo not drawn) [a10] | 1 | 1 | 1 | –
CC(C)NCC(O)CN1C(=O)C2C(C1=O)C1(C)C(=O)C2(C)C(c2ccccc2)=C1c1ccccc1 (stereo not drawn) [a11] | 90 | 90 | 70 | –
CN(C)CC(O)CN1C(=O)C2C(C1=O)C1(C)C(=O)C2(C)C(c2ccccc2)=C1c1ccccc1 (stereo not drawn) [a12] | 100 | 90 | 100 | –
CC(C)NCC(O)CN1C(=O)C2C(C1=O)C1(c3ccccc3)C(=O)C2(c2ccccc2)C(c2ccccc2)=C1c1ccccc1 (stereo not drawn) [a13] | 1 | 0.9 | 2 | –
CN(C)CC(O)CN1C(=O)C2C(C1=O)C1(c3ccccc3)C(=O)C2(c2ccccc2)C(c2ccccc2)=C1c1ccccc1 (stereo not drawn) [a14] | 1 | 0.9 | 2 | –
COC12C=CC(CC1)C1C(=O)N(CCN(C)C)C(=O)C12 (stereo not drawn) [b1] | > 1000 | > 1000 | – | –
CCN(CC)CCN1C(=O)C2C3C=CC(OC)(CC3)C2C1=O (stereo not drawn) [b2] | > 1000 | > 1000 | – | –
COC12C=CC(CC1)C1C(=O)N(CCN3CCOCC3)C(=O)C12 (stereo not drawn) [b3] | > 1000 | > 1000 | – | –
COC12C=CC(CC1)C1C(=O)N(CCN3CCCCC3)C(=O)C12 (stereo not drawn) [b4] | > 1000 | > 1000 | – | –
COC12C=CC(CC1)C1C(=O)N(CCCN(C)C)C(=O)C12 (stereo not drawn) [b5] | > 1000 | > 1000 | – | –
CC(=O)OC12C=CC(OC(C)=O)(CC1)C1C(=O)N(CCN(C)C)C(=O)C12 (stereo not drawn) [b6] | > 1000 | > 1000 | – | –

SMILES | IC50 (HeLa cells) [µM] | IC50 (K562 cells [3]; Homo sapiens, K562, 48 h) [µM] | IC50 (HUVEC cells) [µM] | further results
CCN(CC)CCN1C(=O)C2C(C1=O)C1(OC(C)=O)C=CC2(OC(C)=O)CC1 (stereo not drawn) [b7] | > 1000 | > 1000 | – | –
CC(=O)OC12C=CC(OC(C)=O)(CC1)C1C(=O)N(CCN3CCOCC3)C(=O)C12 (stereo not drawn) [b8] | > 1000 | > 1000 | – | –
CC(=O)OC12C=CC(OC(C)=O)(CC1)C1C(=O)N(CCN3CCCCC3)C(=O)C12 (stereo not drawn) [b9] | > 1000 | > 1000 | – | –
CC(=O)OC12C=CC(OC(C)=O)(CC1)C1C(=O)N(CCCN(C)C)C(=O)C12 (stereo not drawn) [b10] | > 1000 | > 1000 | – | –
CC1=CC2(C)CC(C)(C)C1C1C(=O)N(CCN(C)C)C(=O)C12 (stereo not drawn) [b11] | 90 | 100 | 300 | –
CCN(CC)CCN1C(=O)C2C3C(C)=CC(C)(CC3(C)C)C2C1=O (stereo not drawn) [b12] | 1000 | > 1000 | – | –
CC1=CC2(C)CC(C)(C)C1C1C(=O)N(CCN3CCOCC3)C(=O)C12 (stereo not drawn) [b13] | 90 | 90 | 100 | –
CC1=CC2(C)CC(C)(C)C1C1C(=O)N(CCN3CCCCC3)C(=O)C12 (stereo not drawn) [b14] | 100 | 100 | – | –
CC1=CC2(C)CC(C)(C)C1C1C(=O)N(CCCN(C)C)C(=O)C12 (stereo not drawn) [b15] | 100 | 90 | 700 | –
CC(C)COC12CCC(C(=O)C1)C1C(=O)N(CCN(C)C)C(=O)C12 (stereo not drawn) [c1] | > 1000 | > 1000 | – | –
CCN(CC)CCN1C(=O)C2C3CCC(OCC(C)C)(CC3=O)C2C1=O (stereo not drawn) [c2] | > 1000 | > 1000 | – | –
CC(C)COC12CCC(C(=O)C1)C1C(=O)N(CCN3CCOCC3)C(=O)C12 (stereo not drawn) [c3] | > 1000 | > 1000 | – | –
CC(C)COC12CCC(C(=O)C1)C1C(=O)N(CCN3CCCCC3)C(=O)C12 (stereo not drawn) [c4] | > 1000 | > 1000 | – | –
CC(C)COC12CCC(C(=O)C1)C1C(=O)N(CCCN(C)C)C(=O)C12 (stereo not drawn) [c5] | > 1000 | > 1000 | – | –
CCOC(=O)C1CC2C(=O)CC1(C)C1C(=O)N(CCN(C)C)C(=O)C21 (stereo not drawn) [c6] | 100 | > 1000 | > 1000 | –
CCOC(=O)C1CC2C(=O)CC1(C)C1C(=O)N(CCN(CC)CC)C(=O)C21 (stereo not drawn) [c7] | > 1000 | > 1000 | – | –
CCOC(=O)C1CC2C(=O)CC1(C)C1C(=O)N(CCN3CCOCC3)C(=O)C21 (stereo not drawn) [c8] | > 1000 | > 1000 | – | –
CCOC(=O)C1CC2C(=O)CC1(C)C1C(=O)N(CCN3CCCCC3)C(=O)C21 (stereo not drawn) [c9] | > 1000 | > 1000 | – | –
CCOC(=O)C1CC2C(=O)CC1(C)C1C(=O)N(CCCN(C)C)C(=O)C21 (stereo not drawn) [c10] | > 1000 | > 1000 | – | –
N.N.[Cl][Pt][Cl] [cis-platinum] | – | – | – | IC50 (K562 cells [4]): several to several dozens
